Laboratory results as given in ChEMBL document CHEMBL1150213, “Protein-tyrosine kinase inhibition: mechanism-based discovery of antitumor agents” (J Nat Prod, 1992).

Molecular target: Epidermal growth factor receptor (Homo sapiens, UniProt P00533)
Sequence (P00533 whole entry): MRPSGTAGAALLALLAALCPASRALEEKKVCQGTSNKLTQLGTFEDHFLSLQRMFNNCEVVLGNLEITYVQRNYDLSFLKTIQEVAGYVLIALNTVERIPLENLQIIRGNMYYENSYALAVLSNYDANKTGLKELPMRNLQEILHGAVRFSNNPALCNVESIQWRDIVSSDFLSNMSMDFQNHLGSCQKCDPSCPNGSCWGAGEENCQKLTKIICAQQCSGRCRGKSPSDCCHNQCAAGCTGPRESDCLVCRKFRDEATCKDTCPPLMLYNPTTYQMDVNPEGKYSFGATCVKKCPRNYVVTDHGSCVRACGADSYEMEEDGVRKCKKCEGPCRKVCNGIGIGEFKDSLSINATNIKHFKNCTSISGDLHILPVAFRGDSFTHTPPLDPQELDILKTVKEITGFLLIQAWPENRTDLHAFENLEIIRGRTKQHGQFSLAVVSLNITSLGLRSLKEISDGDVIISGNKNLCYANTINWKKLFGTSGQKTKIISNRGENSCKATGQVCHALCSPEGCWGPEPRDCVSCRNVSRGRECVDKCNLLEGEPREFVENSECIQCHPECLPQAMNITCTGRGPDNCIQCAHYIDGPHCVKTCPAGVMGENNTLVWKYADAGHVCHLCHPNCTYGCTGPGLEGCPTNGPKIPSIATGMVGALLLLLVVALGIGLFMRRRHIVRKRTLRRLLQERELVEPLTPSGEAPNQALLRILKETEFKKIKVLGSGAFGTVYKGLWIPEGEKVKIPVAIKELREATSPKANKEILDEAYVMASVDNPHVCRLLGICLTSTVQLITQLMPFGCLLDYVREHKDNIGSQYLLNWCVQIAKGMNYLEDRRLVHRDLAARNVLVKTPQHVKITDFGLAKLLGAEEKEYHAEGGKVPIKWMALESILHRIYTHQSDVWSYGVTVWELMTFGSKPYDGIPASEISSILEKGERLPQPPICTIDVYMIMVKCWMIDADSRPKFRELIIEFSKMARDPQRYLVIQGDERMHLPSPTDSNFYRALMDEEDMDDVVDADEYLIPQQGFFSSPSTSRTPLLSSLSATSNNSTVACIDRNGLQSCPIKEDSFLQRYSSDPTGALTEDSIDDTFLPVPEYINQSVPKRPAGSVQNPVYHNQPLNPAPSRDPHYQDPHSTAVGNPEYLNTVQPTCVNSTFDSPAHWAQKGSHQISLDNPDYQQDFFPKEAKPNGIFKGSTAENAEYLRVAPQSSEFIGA
Description: Inhibition of EGFR in human A431 cells

| IC50 [µM] | Structure (SMILES) |
| --- | --- |
| 10 | N#CC(C#N)=C(O)c1cc(O)c(O)c(O)c1 |
| 0.333 | COc1c(O)cc(O)c2c(=O)c(-c3ccc(O)cc3)coc12 [PSI-TECTORIGENIN] |
| 500 | N#CC(C#N)=C(O)c1ccc(O)cc1 |
| 30 | N#C/C(=C\c1ccc(O)c(O)c1)C(=O)O |
| 1000 | O=C(O)/C=C/c1ccc(O)c(O)c1 [CAFFEIC ACID] |
| 1 | N#C/C(=C\c1ccc(O)c(O)c1)C(=O)c1ccccc1 |
| 0.0252 | O=C(O)c1cc(N(Cc2cc(O)ccc2O)Cc2cc(O)ccc2O)ccc1O |
| 400 | N#CC(C#N)=C(C#N)c1cccc(O)c1 |
| 10 | N#CC(C#N)=C(C#N)c1ccc(O)c(O)c1 |
| 72.4 | O=C(O)c1ccc(O)cc1 [PARABEN] |
| > 393 | O=c1c(-c2ccc(O)cc2)coc2cc(O)ccc12 [DAIDZEIN] |
| 6 | COc1cc(C(C#N)=C(C#N)C#N)cc(O)c1O |
| 0.0105 | O=C(O)c1cc(N(Cc2ccccc2O)Cc2cc(O)ccc2O)ccc1O [LAVENDUSTIN A] |
| 2 | N#C/C(=C\c1ccc(O)c(O)c1)C(=O)c1ccccc1Cl |
| 600 | N#CC(C#N)=C(C#N)c1ccc(O)cc1 |
| 0.4 | N#C/C(=C\c1ccc(O)c(O)c1)C(=O)c1ccc(O)c(O)c1 |
| 0.524 | O=C(O)c1ccc(O)c(N(Cc2ccccc2O)Cc2cc(O)ccc2O)c1 |
| 2 | N#C/C(=C\c1ccc(O)c(O)c1)C(=O)c1ccc([N+](=O)[O-])cc1 |

| IC50 [µM] | Structure (SMILES) |
| --- | --- |
| 14.1 | COc1cc(O)c2c(=O)c(-c3ccc(O)cc3)coc2c1 [PRUNETIN] |
| 600 | N#CC(C#N)=C(C#N)c1ccc(C=O)cc1 |
| > 231 | O=c1c(-c2ccc(O)cc2)coc2cc(O[C@@H]3O[C@H](CO)[C@@H](O)[C@H](O)[C@H]3O)cc(O)c12 [GENISTIN] |
| 0.9 | Cc1ccc(C(=O)/C(C#N)=C/c2ccc(O)c(O)c2)cc1 |
| 3 | N#CC(C#N)=C(C#N)c1cc(O)c(O)c(O)c1 |
| 3 | N#CC(C#N)=C(N)/C(C#N)=C/c1ccc(O)c(O)c1 |
| 20 | N#C/C(=C\c1cc(O)ccc1O)C(=O)O |
| 900 | COc1cc(C(C#N)=C(C#N)C#N)cc(OC)c1O |
| 2 | N#C/C(=C/c1ccc(O)c(O)c1)C(=O)NC1CCCCC1 |
| 10.5 | O=c1c(O)c(-c2ccc(O)cc2)oc2cc(O)cc(O)c12 [KAEMPFEROL] |
| 10 | N#C/C(=C/c1ccc(O)c(O)c1)C(=O)Nc1ccccc1Cl |
| 1.37 | O=C(O)c1cc(N(Cc2ccccc2O)Cc2ccccc2O)ccc1O [LAVENDUSTIN B] |
| 0.1 | N#C/C(=C/c1ccc(O)c(O)c1)C(=O)NCCCCc1ccccc1 |
| 225 | O=c1cc(-c2ccccc2)oc2ccccc12 [FLAVONE] |
| 10 | N#CC(C#N)=C(C#N)c1cc(O)cc(O)c1 |
| 106 | COc1ccc(-c2coc3cc(O)cc(O)c3c2=O)cc1 [BIOCHANIN] |
| 141 | COc1ccc(-c2cc(=O)c3c(O)cc(O)cc3o2)cc1 [ACACETIN] |
| 0.6 | N#C/C(=C\c1ccc(O)c(O)c1)C(=O)c1ccc(F)cc1 |

| Structure (SMILES) | IC50 [µM] |
| --- | --- |
| N#CC(C#N)=C(N)/C(C#N)=C/c1ccc(O)cc1 | 0.1 |
| N#C/C(=C\c1ccc(O)cc1)C(=O)O [alpha-CYANO-4-HYDROXYCINNAMIC ACID] | 200 |
| COc1cc(/C=C/[N+](=O)[O-])ccc1O | 8 |
| O=P(O)(O)C(O)c1ccc2ccccc2c1 (stereo not drawn) | 200 |
| O=[N+]([O-])/C=C/c1ccc(O)c(O)c1 | 9 |
| C/C(=C\c1ccc(O)c(O)c1)[N+](=O)[O-] | 9 |
| N#C/C(=C\c1ccc(O)c(O)c1)C(=O)NCCc1ccccc1 | 0.9 |

Molecular target: Tyrosine-protein kinase Lck (Homo sapiens, UniProt P06239)
Sequence (P06239 whole entry): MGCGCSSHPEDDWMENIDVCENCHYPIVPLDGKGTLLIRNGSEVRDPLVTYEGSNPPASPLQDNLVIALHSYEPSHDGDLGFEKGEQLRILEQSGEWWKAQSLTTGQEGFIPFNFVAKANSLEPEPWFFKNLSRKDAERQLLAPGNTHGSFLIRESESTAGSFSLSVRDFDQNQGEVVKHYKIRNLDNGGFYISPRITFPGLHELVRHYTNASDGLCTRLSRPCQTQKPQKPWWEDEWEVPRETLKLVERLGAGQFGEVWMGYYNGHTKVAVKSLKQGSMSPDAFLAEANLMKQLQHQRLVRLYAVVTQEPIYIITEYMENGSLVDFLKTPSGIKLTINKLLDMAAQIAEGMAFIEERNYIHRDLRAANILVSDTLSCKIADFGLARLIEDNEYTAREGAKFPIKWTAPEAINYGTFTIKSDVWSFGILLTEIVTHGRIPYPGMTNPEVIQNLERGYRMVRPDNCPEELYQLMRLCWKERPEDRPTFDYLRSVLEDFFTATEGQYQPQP

| IC50 [µM] | Structure (SMILES) |
| --- | --- |
| > 2810 | COc1cc(O)c2c(c1)C(=O)c1cc(C)cc(O)c1C2=O [PHYSCION] |
| 100 | Nc1ccc(-c2cc(=O)c3ccc(O)cc3o2)cc1 |
| 89.2 | O=C1c2ccccc2C(=O)c2cc(O)ccc21 [2-HYDROXYANTHRAQUINONE] |
| 109 | CC(C)(C)[Si](C)(C)Oc1ccc(-c2cc(=O)c3ccc(O)cc3o2)cc1 |
| 7 | Nc1ccc(-c2cc(=O)c3c(O)c(O)ccc3o2)cc1 |
